In patent US5041451A, “Tetrahydroisoquinoline and tetrahydrothieno derivatives” (Dr. Lo. Zambelletti SpA, priority 1988, dated 1991):
Structures can show the parent of a compound that is named as a salt.

What was measured:
[1] = system: mice (p-phenylquinone-induced abdominal writhing); assay: P-phenylquinone-induced abdominal writhing test in mice; format: in vivo, mouse (male Charles River, Swiss Strain); settings: Mus musculus, sc, 20 min; s.c., 20 min pretreatment; p-phenylquinone 2 mg/Kg i.p.; 8 min observation; data given for free base form; read-out: ANALGESIA MOUSE WRITHING ED50
Description: P-phenylquinone-induced Abdominal Writhinq Test in Mice
The methodology employed is based on that described by Sigmund et al, Proc. Soc. Exptl. Biol. 95, 729/1957, modified by Milne and Twomey, Agents and Actions, 10, 31/1980.
Male Charles River mice (Swiss Strain), 25-36 g body weight, are used. Animals are allowed food and water ad libitum and are randomized into groups of 10 prior to experimentation. Test compounds are dissolved in either distilled water or distilled water plus 0.1 M AMS, and administered by the subcutaneous route in a final volume of 10 ml/Kg. Control animals receive 10 ml/Kg of the appropriate vehicle alone. Following a pretreatment period of 20 min., mice are injected intraperitoneally with p-phenylquinone, 2 mg/Kg at 37° C. in a final volume of 10 mg/Kg. Next, the mice are placed, in a groups of 3, in a compartmented perspex box maintained at room temperature and are observed for a period of 8 min. During this period the number of abdominal writhing responses per animal are recorded where writhing consists of an intermittent contraction of the abdomen associated with hind leg extension.
The degree of antinociceptive protection afforded by the test compound is determined as the mean number of writhing responses observed in the treated group (T) expressed as a percentage of the mean number of writhing responses in the control group (C) according to the following formula:
[1-(T/C)]×100%=% graded protection.

[2] = system: mice (tail-flick, heat source reaction time); assay: Mouse tail-flick test; format: in vivo, mouse (male Charles River); settings: sc, 0.5 h, s.c., 30 min after dosing, percent number of mice doubling the initial time, data given for free base form, read-out: ANALGESIA MOUSE TAIL-FLICK ED50
Description: Mouse Tail-flick test (Modified from the procedure published by D Amour et al., J. Pharm. Exptl. Ther.72, 74/1941).
Male Charles River mice, average weight 26g, are used. Selection is carried out before beginning of experiments: only mice whose reaction time is less than 8 sec are used. They are randomly distributed into groups of 10 and dosed with compounds under test, with positive and negative controls being included.
Compounds under test are administered subcutaneously in isotonic saline in a volume of 20 ml. Kg^-1. 30 min later mice are placed again under heat source (Socrel apparatus) and reaction time is recorded.
The analgesic activity of the test compound is expressed as the percent number of mice doubling the initial time within a group. [formula]

## O=C1CCCc2cc(CC(=O)N3CCc4sccc4C3CN3CCCCC3)ccc21 (single isomer, unassigned) [Example 5, (-)4-(piperidin-1-yl)methyl-5-(1-oxo-3,4-dihydro-(2H)-napht-6-yl)acetyl-4,5,6,7-tetrahydrothieno [3,2-c]pyridine L(+) tartrate]
[1]
  ED50: 0.009 mg/kg
[2]
  ED50: 0.045 mg/kg

## O=C1CCCc2cc(CC(=O)N3CCc4ccccc4C3CN3CCCC3)ccc21 (stereo not shown) [Example 1, 1-(pyrrolidin-1-yl)methyl-2-(1-oxo-3,4-dihydro-(2H)-napht-6-Yl)acetyl-1,2,3,4-tetrahydroisoquinoline hydrochloride]
[1]
  ED50: 0.036 mg/kg
[2]
  ED50: 0.114 mg/kg

## O=C1CCCc2cc(CC(=O)N3CCc4ccccc4C3CN3CCCCC3)ccc21 (stereo not shown) [Example 2, 1-(piperidin-1-yl)methyl-2-(1-oxo-3,4-dihydro-(2H)-napht-6-yl)acetyl-1,2,3,4-tetrahydroisoquinoline hydrochloride]
[1]
  ED50: 0.038 mg/kg
[2]
  ED50: 0.206 mg/kg

## O=C1CCCc2cc(CC(=O)N3CCc4sccc4C3CN3CCCC3)ccc21 (stereo not shown) [Example 3, 4-(pyrrolidin-1-yl)methyl-5-(1-oxo-3,4-dihydro-(2H)-napht-6-yl)acetyl-4,5,6,7-tetrahydrothieno [3,2-c] pyridine hydrochloride]
[1]
  ED50: 0.023 mg/kg
[2]
  ED50: 0.086 mg/kg

## O=C1CCCc2cc(CC(=O)N3CCc4sccc4C3CN3CCCCC3)ccc21 (stereo not shown) [Example 4, 4-(piperidin-1-yl)methyl-5-(1-oxo-3,4-dihydro-(2H)-napht-6-Yl)acetyl-4,5,6,7-tetrahydrothieno [3,2-c]pyridine hydrochloride hemihydrate]
[1]
  ED50: 0.017 mg/kg
[2]
  ED50: 0.174 mg/kg
